Measurements from patent US20240300932A1, “N-PHENYLIMINE DERIVATIVE AND PREPARATION METHOD AND USE THEREOF” (Guizhou University, priority 2023, published 2024).

How the values were obtained:
Test in all cases: Post-emergence herbicidal activity test (stem and leaf spray, pot culture)
Type in all cases: in vivo
Conditions in all cases: 3 weeks after spraying
Trifoliumre pensL. = test system: Trifoliumre pensL.
Outline: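 Rates of 10, 5 and 2.5 g/mu were applied in a single spray-tower treatment to 2–3-leaf plants, thinned to 10 per pot. Formulation: acetone solution, Tween 80, 1.5 L/ha methyl oleate synergist. Weed response assessed after 3 further greenhouse weeks; mean of three experiments.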

Abutilon theophrasti = test system: Abutilon theophrasti
Outline: (§1)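 Foliar spray, 2–3-leaf stage, 10/5/2.5 g/mu; acetone/Tween 80 + methyl oleate 1.5 L/ha. Greenhouse 3 wk, 20–30 °C. Score: fresh-wt control, grade 5 ≥85% … grade 0 <5%.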

Portulaca oleracea = test system: Portulaca oleracea
Outline: as §1

Echinochloa crusgalli = test system: Echinochloa crusgalli
Outline: as §1

Setaria viridis = test system: Setaria viridis
Outline: as §1

Amaranthus retroflexus = test system: Amaranthus retroflexus
Outline: as §1

Row | SMILES | Post-emergence herbicidal activity, Trifoliumre pensL. (grade) (Trifoliumre pensL.; dosage 2.5 g/mu) | Post-emergence herbicidal activity, Trifoliumre pensL. (grade) (Trifoliumre pensL.; dosage 5 g/mu) | Post-emergence herbicidal activity, Trifoliumre pensL. (grade) (Trifoliumre pensL.; dosage 10 g/mu) | Post-emergence herbicidal activity, A. theophrasti (grade) (Abutilon theophrasti; dosage 2.5 g/mu) | Post-emergence herbicidal activity, A. theophrasti (grade) (Abutilon theophrasti; dosage 5 g/mu) | Post-emergence herbicidal activity, A. theophrasti (grade) (Abutilon theophrasti; dosage 10 g/mu) | Post-emergence herbicidal activity, P. oleracea (grade) (Portulaca oleracea; dosage 2.5 g/mu) | Post-emergence herbicidal activity, P. oleracea (grade) (Portulaca oleracea; dosage 5 g/mu) | Post-emergence herbicidal activity, P. oleracea (grade) (Portulaca oleracea; dosage 10 g/mu) | Post-emergence herbicidal activity, E. crusgalli (grade) (Echinochloa crusgalli; dosage 2.5 g/mu) | Post-emergence herbicidal activity, E. crusgalli (grade) (Echinochloa crusgalli; dosage 5 g/mu) | Post-emergence herbicidal activity, E. crusgalli (grade) (Echinochloa crusgalli; dosage 10 g/mu) | Post-emergence herbicidal activity, S. viridis (grade) (Setaria viridis; dosage 2.5 g/mu) | Post-emergence herbicidal activity, S. viridis (grade) (Setaria viridis; dosage 5 g/mu) | Post-emergence herbicidal activity, S. viridis (grade) (Setaria viridis; dosage 10 g/mu) | Post-emergence herbicidal activity, A. retroflexus (grade) (Amaranthus retroflexus; dosage 2.5 g/mu) | Post-emergence herbicidal activity, A. retroflexus (grade) (Amaranthus retroflexus; dosage 5 g/mu) | Post-emergence herbicidal activity, A. retroflexus (grade) (Amaranthus retroflexus; dosage 10 g/mu)
1 | O=C1C2=C(CCCC2)C(=O)N1c1cc(OCc2nnc(-c3ccc(Br)cc3)o2)c(Cl)cc1F [Compound B16] | 5 (Grade 5: the growth control rate is greater than or equal to 85%) | 5 (Grade 5: the growth control rate is greater than or equal to 85%) | 5 (Grade 5: the growth control rate is greater than or equal to 85%) | 5 (Grade 5: the growth control rate is greater than or equal to 85%) | 5 (Grade 5: the growth control rate is greater than or equal to 85%) | 5 (Grade 5: the growth control rate is greater than or equal to 85%) | 5 (Grade 5: the growth control rate is greater than or equal to 85%) | 5 (Grade 5: the growth control rate is greater than or equal to 85%) | 5 (Grade 5: the growth control rate is greater than or equal to 85%) | 1 (Grade 1: the growth control rate is greater than or equal to 5% and less than 20%) | 2 (Grade 2: the growth control rate is greater than or equal to 20% and less than 40%) | 3 (Grade 3: the growth control rate is greater than or equal to 40% and less than 60%) | 2 (Grade 2: the growth control rate is greater than or equal to 20% and less than 40%) | 3 (Grade 3: the growth control rate is greater than or equal to 40% and less than 60%) | 4 (Grade 4: the growth control rate is greater than or equal to 60% and less than 85%) | 5 (Grade 5: the growth control rate is greater than or equal to 85%) | 5 (Grade 5: the growth control rate is greater than or equal to 85%) | 5 (Grade 5: the growth control rate is greater than or equal to 85%)
2 | O=C1C2=C(CCCC2)C(=O)N1c1cc(OCc2nnc(-c3ccc(I)cc3)o2)c(Cl)cc1F [Compound B17] | 5 (Grade 5: the growth control rate is greater than or equal to 85%) | 5 (Grade 5: the growth control rate is greater than or equal to 85%) | 5 (Grade 5: the growth control rate is greater than or equal to 85%) | 5 (Grade 5: the growth control rate is greater than or equal to 85%) | 5 (Grade 5: the growth control rate is greater than or equal to 85%) | 5 (Grade 5: the growth control rate is greater than or equal to 85%) | 5 (Grade 5: the growth control rate is greater than or equal to 85%) | 5 (Grade 5: the growth control rate is greater than or equal to 85%) | 5 (Grade 5: the growth control rate is greater than or equal to 85%) | 1 (Grade 1: the growth control rate is greater than or equal to 5% and less than 20%) | 2 (Grade 2: the growth control rate is greater than or equal to 20% and less than 40%) | 3 (Grade 3: the growth control rate is greater than or equal to 40% and less than 60%) | 2 (Grade 2: the growth control rate is greater than or equal to 20% and less than 40%) | 3 (Grade 3: the growth control rate is greater than or equal to 40% and less than 60%) | 4 (Grade 4: the growth control rate is greater than or equal to 60% and less than 85%) | 5 (Grade 5: the growth control rate is greater than or equal to 85%) | 5 (Grade 5: the growth control rate is greater than or equal to 85%) | 5 (Grade 5: the growth control rate is greater than or equal to 85%)
3 | O=C1C2=C(CCCC2)C(=O)N1c1cc(OCc2nnc(-c3ccc([N+](=O)[O-])cc3)o2)c(Cl)cc1F [Compound B18] | 5 (Grade 5: the growth control rate is greater than or equal to 85%) | 5 (Grade 5: the growth control rate is greater than or equal to 85%) | 5 (Grade 5: the growth control rate is greater than or equal to 85%) | 4 (Grade 4: the growth control rate is greater than or equal to 60% and less than 85%) | 5 (Grade 5: the growth control rate is greater than or equal to 85%) | 5 (Grade 5: the growth control rate is greater than or equal to 85%) | 4 (Grade 4: the growth control rate is greater than or equal to 60% and less than 85%) | 5 (Grade 5: the growth control rate is greater than or equal to 85%) | 5 (Grade 5: the growth control rate is greater than or equal to 85%) | 1 (Grade 1: the growth control rate is greater than or equal to 5% and less than 20%) | 2 (Grade 2: the growth control rate is greater than or equal to 20% and less than 40%) | 3 (Grade 3: the growth control rate is greater than or equal to 40% and less than 60%) | 2 (Grade 2: the growth control rate is greater than or equal to 20% and less than 40%) | 3 (Grade 3: the growth control rate is greater than or equal to 40% and less than 60%) | 4 (Grade 4: the growth control rate is greater than or equal to 60% and less than 85%) | 5 (Grade 5: the growth control rate is greater than or equal to 85%) | 5 (Grade 5: the growth control rate is greater than or equal to 85%) | 5 (Grade 5: the growth control rate is greater than or equal to 85%)
4 | O=C1C2=C(CCCC2)C(=O)N1c1cc(OCc2nnc(-c3ccc(Cl)cc3F)o2)c(Cl)cc1F [Compound B19] | 5 (Grade 5: the growth control rate is greater than or equal to 85%) | 5 (Grade 5: the growth control rate is greater than or equal to 85%) | 5 (Grade 5: the growth control rate is greater than or equal to 85%) | 5 (Grade 5: the growth control rate is greater than or equal to 85%) | 5 (Grade 5: the growth control rate is greater than or equal to 85%) | 5 (Grade 5: the growth control rate is greater than or equal to 85%) | 5 (Grade 5: the growth control rate is greater than or equal to 85%) | 5 (Grade 5: the growth control rate is greater than or equal to 85%) | 5 (Grade 5: the growth control rate is greater than or equal to 85%) | 1 (Grade 1: the growth control rate is greater than or equal to 5% and less than 20%) | 2 (Grade 2: the growth control rate is greater than or equal to 20% and less than 40%) | 3 (Grade 3: the growth control rate is greater than or equal to 40% and less than 60%) | 2 (Grade 2: the growth control rate is greater than or equal to 20% and less than 40%) | 3 (Grade 3: the growth control rate is greater than or equal to 40% and less than 60%) | 4 (Grade 4: the growth control rate is greater than or equal to 60% and less than 85%) | 5 (Grade 5: the growth control rate is greater than or equal to 85%) | 5 (Grade 5: the growth control rate is greater than or equal to 85%) | 5 (Grade 5: the growth control rate is greater than or equal to 85%)
